Experimental data: paper PMC7391456, “Targeting fibroblast activation protein (FAP): next generation PET radiotracers using squaramide coupled bifunctional DOTA and DATA^5m chelators” (EJNMMI Radiopharmacy and Chemistry, 2020)

Key:
Human recombinant PREP = target: T1, Human recombinant PREP (Homo sapiens, UniProt P48147); experiment: PREP inhibition assay (IC50, N-succinyl-Gly-Pro-AMC substrate); format: biochemical; details: N-succinyl-Gly-Pro-AMC 250 μM, pH 7.4, 15 min pre-incubation at 37 °C
T1 sequence (P48147 1-710): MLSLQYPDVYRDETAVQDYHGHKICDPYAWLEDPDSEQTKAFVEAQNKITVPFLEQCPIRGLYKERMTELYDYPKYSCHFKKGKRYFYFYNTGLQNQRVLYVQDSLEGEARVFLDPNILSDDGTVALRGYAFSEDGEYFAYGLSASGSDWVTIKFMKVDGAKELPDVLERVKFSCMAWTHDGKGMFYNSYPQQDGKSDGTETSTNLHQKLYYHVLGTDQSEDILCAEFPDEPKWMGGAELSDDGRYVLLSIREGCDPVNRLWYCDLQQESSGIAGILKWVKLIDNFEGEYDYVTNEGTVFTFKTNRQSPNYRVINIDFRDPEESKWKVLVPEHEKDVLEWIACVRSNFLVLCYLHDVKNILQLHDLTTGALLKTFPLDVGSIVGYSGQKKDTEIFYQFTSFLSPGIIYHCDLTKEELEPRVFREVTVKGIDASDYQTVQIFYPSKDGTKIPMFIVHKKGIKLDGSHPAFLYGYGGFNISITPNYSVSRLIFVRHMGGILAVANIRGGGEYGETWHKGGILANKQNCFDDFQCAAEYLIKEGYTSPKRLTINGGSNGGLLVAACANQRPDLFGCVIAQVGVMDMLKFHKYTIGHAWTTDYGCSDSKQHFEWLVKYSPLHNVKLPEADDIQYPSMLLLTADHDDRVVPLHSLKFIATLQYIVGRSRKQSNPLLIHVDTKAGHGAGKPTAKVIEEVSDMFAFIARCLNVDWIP
From the text: (§1) Enzymes: A gateway-entry clone for human FAP was purchased from Dharmacon (Accession number DQ891423) and the human secretion signal was replaced with the HoneyBee mellitin secretion signal. For transfection and expression of FAP in Sf9 insect cells, the C-terminal BaculoDirect kit from LifeTechnologies was used. The enzyme was purified from the supernatant of the insect cells using immobilized Ni-chelating chromatography (GE healthcare, Diegem, Belgium), followed by anion-exchange chromatography using a 1 mL HiTrap Q (GE healthcare, Diegem, Belgium). Human recombinant PREP was expressed in BL21(DE3) cells and purified using immobilized Co-chelating chromatography (GE healthcare) followed by anion-exchange chromatography on a 1 ml Mono Q column (GE healthcare).
(§2) Eight concentrations of inhibitors were tested. The final DMSO concentration is kept constant during the experiment to exclude any effects. Inhibitors were pre-incubated with the enzyme for 15 min at 37 °C, afterwards the substrate was added and the velocities of AMC release were measured kinetically at λex = 380 nm, λem = 465 nm for at least 10 min at 37 °C. The Infinite 200 (Tecan Group Ltd.) micro-titer plate reader and the Magellan software were used for measurement and data processing, respectively.
(§3) The data were fitted using a non-linear fit model in GraFit 7 software, according to the following equation: y=range/1+x/IC50^s where y is the value of the residual enzymatic activity compared to a non-inhibited sample, x is the final inhibitor concentration in the assay, s is the slope factor and the IC50 is the half maximal inhibitory concentration.

human FAP = target: T2, human FAP (Homo sapiens, UniProt Q12884); experiment: FAP inhibition assay (IC50, Z-Gly-Pro-AMC substrate); format: biochemical; details: for IC50: Z-Gly-Pro-AMC 50 μM, pH 8, 15 min pre-incubation at 37 °C
T2 construct: the human secretion signal was replaced with the HoneyBee mellitin secretion signal; HoneyBee mellitin secretion signal (replaces the native signal-anchor) (N); C-terminal tag of the BaculoDirect C-term kit (C); made in house; host or cells: Sf9 insect cells (baculovirus); purified from the supernatant
T2 sequence (Q12884 26-760 limits assumed): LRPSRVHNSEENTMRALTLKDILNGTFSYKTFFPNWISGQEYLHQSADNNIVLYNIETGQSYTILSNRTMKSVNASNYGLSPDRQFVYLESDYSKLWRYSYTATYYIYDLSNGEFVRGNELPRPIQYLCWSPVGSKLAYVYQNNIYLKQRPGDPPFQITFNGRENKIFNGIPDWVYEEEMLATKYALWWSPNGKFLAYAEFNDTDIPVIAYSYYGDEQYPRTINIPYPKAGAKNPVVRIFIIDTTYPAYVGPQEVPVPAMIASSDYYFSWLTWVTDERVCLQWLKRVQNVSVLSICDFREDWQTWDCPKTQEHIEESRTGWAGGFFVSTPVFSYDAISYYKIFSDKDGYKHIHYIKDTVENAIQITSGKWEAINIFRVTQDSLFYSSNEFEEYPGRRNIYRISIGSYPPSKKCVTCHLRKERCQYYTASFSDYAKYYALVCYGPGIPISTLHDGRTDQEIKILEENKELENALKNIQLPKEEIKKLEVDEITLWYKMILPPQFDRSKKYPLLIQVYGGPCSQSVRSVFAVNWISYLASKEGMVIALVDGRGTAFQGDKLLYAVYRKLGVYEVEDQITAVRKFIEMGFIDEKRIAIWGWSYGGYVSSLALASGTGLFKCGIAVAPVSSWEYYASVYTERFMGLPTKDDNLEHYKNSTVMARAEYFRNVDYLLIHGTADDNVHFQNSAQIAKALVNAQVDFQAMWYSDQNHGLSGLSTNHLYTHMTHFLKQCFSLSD
From the text: as §1
as §2, with “was” for “is”, “any solvent” for “any”, “processing” for “processing,”
as §3

[1] = Stability studies of gallium-68 complexes in media (EtOH, human serum, saline, PBS); format: physicochemical
Experimental: Gallium-68 stability studies against transmetallation (Fe, Cu, Ca, Mg), transchelation (EDTA, DTPA) as well as in HS, EtOH and saline (0.9% isotone NaCl-solution) were performed. 50 μl of the [^68Ga]Ga-DOTA.SA.FAPi labeling solution with > 95% radiochemical purity were added to 1 mL of the respective media. The measured time points for gallium-68 were 15, 30, 45, 60, 90, 120 min. HS (human male AB plasma, USA origin) was bought from Sigma Aldrich, PBS was purchased from Sigma Aldrich and 0.9% saline from B. Braun Melsungen AG (Melsungen, Germany).

IC50 (Human recombinant PREP) [µM] | IC50 (human FAP) [µM] | Selectivity index (IC50 PREP / IC50 FAP) (human FAP; ratio of the IC50 values for FAP and PREP) | Stability, intact conjugate ([1]; human serum (HS), over 2 h) [%] | Stability, intact conjugate ([1]; phosphate buffered saline (PBS), over 120 min) [%] | Stability, intact conjugate ([1]; saline 0.9% (NaCl), over 2 h) [%] | SMILES
4.7 ± 0.3 | 0.0007 ± 0.0001 | 6714 | – | – | – | CN(CC(=O)[O-])C1(CCCCC(=O)NCCNc2c(NCCCCOc3ccc4nccc(C(=O)NCC(=O)N5CC(F)(F)C[C@H]5C#N)c4c3)c(=O)c2=O)CN(CC(=O)[O-])CCN(CC(=O)[O-])C1.[Ga+3] [[^natGa]Ga-DATA^5m.SA.FAPi]
8.7 ± 0.9 | 0.0014 ± 0.0002 | – | – | – | – | N#C[C@@H]1CC(F)(F)CN1C(=O)CNC(=O)c1ccnc2ccc(OCCCCNc3c(NCCNC(=O)CN4CCN(CC(=O)[O-])CCN(CC(=O)[O-])CCN(CC(=O)[O-])CC4)c(=O)c3=O)cc12.[Ga+3] [[^natGa]Ga-DOTA.SA.FAPi]
– | – | – | > 95 | > 95 | > 95 | CN(CC(=O)[O-])C1(CCCCC(=O)NCCNc2c(NCCCCOc3ccc4nccc(C(=O)NCC(=O)N5CC(F)(F)C[C@H]5C#N)c4c3)c(=O)c2=O)CN(CC(=O)[O-])CCN(CC(=O)[O-])C1.[68Ga+3] [[^68Ga]Ga-DATA^5m.SA.FAPi]
